Literature values as cited in patent US20180280392A1, “PHARMACEUTICAL PREPARATION COMPRISING CYCLIN INHIBITOR AND PREPARATION METHOD THEREOF” (Jiangsu Hansoh Pharmaceutical Group Co., Ltd., priority 2014, published 2018).
Like-named read-outs stand apart in the source and are kept apart here.

Test system: phosphorylation of retinoblastoma tumor suppressor (RB) in MDA-MB-435 breast cancer cells

- IC50 (Ser780 site, read-out: IC50, reduction of phosphorylation of RB on Ser780): 66 nM
- IC50 (Ser795 site, read-out: IC50, reduction of phosphorylation of RB on Ser795): 63 nM
Structure (SMILES): CC(=O)c1c(C)c2cnc(Nc3ccc(N4CCNCC4)cn3)nc2n(C2CCCC2)c1=O [compound of formula I, 6-acetyl-8-cyclopentyl-5-methyl-2-(5-piperazin-1-yl-pyridin-2-yl-amino)-8H-pyrido[2,3-d]pyrimidin-7-one]
